The values below come from patent US9006282B2 (Redx Pharma Limited, priority 2009, dated 2015).

Where only a bound is given, the exact number is not on record here.

Chain of HMG-CoA Reductase (P04035 340-888): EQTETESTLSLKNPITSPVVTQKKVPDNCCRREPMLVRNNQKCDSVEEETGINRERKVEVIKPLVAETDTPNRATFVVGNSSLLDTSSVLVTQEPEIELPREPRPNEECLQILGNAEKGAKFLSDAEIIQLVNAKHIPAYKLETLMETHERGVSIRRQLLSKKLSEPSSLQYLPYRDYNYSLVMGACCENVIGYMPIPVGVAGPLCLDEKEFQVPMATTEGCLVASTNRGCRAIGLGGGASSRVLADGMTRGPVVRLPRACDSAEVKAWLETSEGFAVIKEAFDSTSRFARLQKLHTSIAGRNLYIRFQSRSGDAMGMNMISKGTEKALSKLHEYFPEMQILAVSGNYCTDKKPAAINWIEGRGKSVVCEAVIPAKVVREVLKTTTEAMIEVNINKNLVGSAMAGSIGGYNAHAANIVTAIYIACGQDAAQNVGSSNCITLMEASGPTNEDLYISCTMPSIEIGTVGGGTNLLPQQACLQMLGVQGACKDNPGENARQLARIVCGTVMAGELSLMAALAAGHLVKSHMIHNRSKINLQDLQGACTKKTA

The first assay deals with rat plasma triglyceride levels. Description: Rat plasma triglyceride levels after 3 or 5 days BID oral treatment. As to conditions: male SD rats, 25 mg/kg po BID for 3 or 5 days, plasma 16 hours after last dose. Type of assay: in vivo.
Description: 112 male SD rats (Harlan) were housed in groups of 6 under a 12 h light dark cycle (lights on 07.00 h) with free access to food (normal laboratory chow) and water. Animals between 148-183 g were allocated to treatment groups of 8 balanced by body weight and treatments were balanced across cages.
Four rosuvastatin analogues were made up in 10% PEG300/10% cremophor/80% methyl cellulose (0.5%) (vehicle 1) to make a 5 mg/mL solution.
Rosuvastatin was formulated in 0.5% Tween in 0.5% methyl cellulose (vehicle 2) at 5 mg/kg as a suspension.
Rats were orally dosed with vehicle 1, one of the four rosuvastatin analogues in vehicle 1 (25 mg/kg), vehicle 2 or rosuvastatin in vehicle 2 (25 mg/kg po), BID for 3 or 5 days.
Sixteen hours after the last treatment, terminal plasma samples were taken, stored at −20° C., and transported on dry ice for analysis of triglyceride levels.
Data for each time-point were analysed by 1-way ANOVA and post-hoc Dunnett's test.
As to `CC(C)c1nc(N(C)S(C)(=O)=O)nc(-c2ccc(F)cc2)c1C=CC(O)CC(O)CC(=O)O` (centres unmarked) [rosuvastatin, 7-[4-(4-fluorophenyl)-6-(1-methylethyl)-2-(methyl-methylsulfonyl-amino)-pyrimidin-5-yl]-3,5-dihydroxy-hept-6-enoic acid], the “effect on plasma triglycerides” value is recorded as “marked reduction in plasma triglycerides”.

Another assay concerns the target HMG-CoA Reductase (Homo sapiens (Human), UniProt P04035). As to the kind of experiment: HMG-CoA Reductase assay kit (Sigma-Aldrich CS1090), spectrophotometric NADPH absorbance at 340 nm. Type of assay: biochemical. Conditions: atorvastatin compounds; inhibitor varied 0 nM to 50 nM; NADPH and HMG-CoA 200 μM. The method, then:
All assays were carried out in a reaction buffer containing […] KxPO4 at pH 7.2, 1 mM EDTA, 500 mM KCl and 1 mg/ml BSA. The concentrations of NADPH and HMG-CoA were both 200 μM. […] Absorbance readings were then taken every 20 seconds for 600 seconds.
Preparation of the Assay Solution
Add a buffer to all samples. • b. […] Add the reconstituted NADPH to all samples. • d. Add Substrate Solution (HMG-CoA) to all samples. • e. […] Mix the samples thoroughly.
3. The kinetics programme was started immediately.
V=volume of enzyme used in the assay (ml)
0.6=enzyme concentration in mg-protein (mgPO/ml (0.55-0.65 mgP/ml)
LP=light path in cm (1 for cuvettes).
What is called IC50 is the concentration at which inhibition is half-maximal. A high value points to weaker potency in that assay. Turning to `COC1C[C@H](OC(=O)c2cccnc2)C[C@@H](CCn2c(-c3ccc(F)cc3)c(-c3ccccc3)c(C(=O)Nc3ccccc3)c2C(C)C)O1` (some centres unmarked), the IC50 was < 1 nM. For `CCCOC1C[C@H](O)C[C@@H](CCn2c(-c3ccc(F)cc3)c(-c3ccccc3)c(C(=O)Nc3ccccc3)c2C(C)C)O1` (some centres unmarked), the IC50 was < 1 nM.

As for `CC(C)c1c(C(=O)Nc2ccccc2)c(-c2ccccc2)c(-c2ccc(F)cc2)n1CC[C@@H]1C[C@@H](O)CC(OC2CCCCC2)O1` (some centres unmarked), the IC50 was < 1 nM.

Consider `COc1ccc(OC2C[C@H](O)C[C@@H](CCn3c(-c4ccc(F)cc4)c(-c4ccccc4)c(C(=O)Nc4ccccc4)c3C(C)C)O2)c(OC)c1` (some centres unmarked), for which the IC50 is < 1 nM.

Staying with this assay, now noted: rosuvastatin compounds; inhibitor varied 0 nM to 50 nM; NADPH and HMG-CoA 200 μM.
`COC1C[C@H](OC(=O)c2cccnc2)C[C@@H](/C=C/c2c(-c3ccc(F)cc3)nc(N(C)S(C)(=O)=O)nc2C(C)C)O1` (some centres unmarked): the half-inhibitory concentration (IC50) is < 1 nM. On the same count and under the same terms, next, `CC(C)c1nc(N(C)S(C)(=O)=O)nc(-c2ccc(F)cc2)c1/C=C/[C@@H]1C[C@@H](OCc2ccccc2)CC(OCC(Cl)(Cl)Cl)O1` (some centres unmarked): 2 nM; `CC(C)c1nc(N(C)S(C)(=O)=O)nc(-c2ccc(F)cc2)c1/C=C/[C@@H]1C[C@@H](O)CC(Oc2c(F)cc(F)cc2F)O1` (some centres unmarked): 1 nM; `COc1ccc(OC2C[C@H](O)C[C@@H](/C=C/c3c(-c4ccc(F)cc4)nc(N(C)S(C)(=O)=O)nc3C(C)C)O2)c(OC)c1` (some centres unmarked): 2 nM. On the same count and under the same terms, the same measure for `CC(C)c1nc(N(C)S(C)(=O)=O)nc(-c2ccc(F)cc2)c1/C=C/[C@@H]1C[C@@H](O)CC(OCC(Cl)(Cl)Cl)O1` (some centres unmarked): 2 nM. On the same count and under the same terms, next, `CCCOC1C[C@H](O)C[C@@H](/C=C/c2c(-c3ccc(F)cc3)nc(N(C)S(C)(=O)=O)nc2C(C)C)O1` (some centres unmarked): 10 nM.
